In the supplement of paper PMC10307832:

Experiments:
Assay in all cases: relative viability (nuclei count vs DMSO), 5 days (fraction); higher = more cells survive
[1] = compound: COc1cc(Nc2ncc(F)c(Nc3ccc4c(n3)NC(=O)C(C)(C)O4)n2)cc(OC)c1OC [R406] + CC(=O)Nc1cccc(-n2c(=O)n(C3CC3)c(=O)c3c(Nc4ccc(I)cc4F)n(C)c(=O)c(C)c32)c1 [Trametinib] (partner 0.02 µM)
How it was run: (§1)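 Lung cancer cell lines in 1536-well plates were dosed by pin tool the day after seeding, either with one drug alone or with a fixed anchor-drug dose plus five library-drug doses (not always all listed) in √10 steps. After 5 days, cells were fixed and their nuclei stained in one step (final 0.05% Triton X-100, 1% formaldehyde, 1 ug/ml Hoechst), then counted on 4× images. Relative viability is the nuclei count in treated wells divided by that in vehicle wells. Values are medians of duplicate plates.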

[2] = compound: COc1cc(Nc2ncc(F)c(Nc3ccc4c(n3)NC(=O)C(C)(C)O4)n2)cc(OC)c1OC [R406] + CS(=O)(=O)N1CCN(Cc2cc3nc(-c4cccc5[nH]ncc45)nc(N4CCOCC4)c3s2)CC1 [Pictilisib] (partner 1 µM)
How it was run: as §1

[3] = compound: COc1cc(Nc2ncc(F)c(Nc3ccc4c(n3)NC(=O)C(C)(C)O4)n2)cc(OC)c1OC [R406] + NC(=O)Nc1cc(-c2cccc(F)c2)sc1C(=O)N[C@H]1CCCNC1 [AZD7762] (partner 0.2 µM)
How it was run: as §1

[4] = compound: O=C(/C=C/c1cccnc1)NCCCCC1CCN(C(=O)c2ccccc2)CC1 [Daporinad] + N=C(N)NC(=N)NCCc1ccccc1 [Phenformin] (partner 250 µM)
How it was run: as §1

Row | Cell Line | relative viability ([1]; first compound 0.08 µM) | relative viability ([1]; first compound 0.253 µM) | relative viability ([1]; first compound 0.8 µM) | relative viability ([1]; first compound 2.53 µM) | relative viability ([1]; first compound 8 µM) | relative viability ([2]; first compound 0.08 µM) | relative viability ([2]; first compound 0.253 µM) | relative viability ([2]; first compound 0.8 µM) | relative viability ([2]; first compound 2.53 µM) | relative viability ([2]; first compound 8 µM) | relative viability ([3]; first compound 0.08 µM) | relative viability ([3]; first compound 0.253 µM) | relative viability ([3]; first compound 0.8 µM) | relative viability ([3]; first compound 2.53 µM) | relative viability ([3]; first compound 8 µM) | relative viability ([4]; first compound 0.0005 µM) | relative viability ([4]; first compound 0.001581 µM) | relative viability ([4]; first compound 0.005 µM) | relative viability ([4]; first compound 0.01581 µM)
1 | LCLC-103H | 0.66 | 0.675 | 0.672 | 0.691 | 0.604 | 0.462 | 0.636 | 0.595 | 0.403 | 0.356 | 0.662 | 0.844 | 0.813 | 0.747 | 0.569 | 0.351 | 0.341 | 0.358 | 0.327
2 | NCI-H460 | 0.0847 | 0.4 | 0.258 | 0.0114 | 0.0382 | 0.33 | 0.426 | 0.38 | 0.224 | 0.259 | 0.651 | 0.829 | 0.69 | 0.61 | 0.762 | 0.472 | 0.575 | 0.533 | 0.523
3 | EPLC-272H | 0.324 | 0.333 | 0.305 | 0.166 | 0.21 | 0.293 | 0.326 | 0.328 | 0.156 | 0.119 | 0.21 | 0.252 | 0.337 | 0.199 | 0.15 | 0.265 | 0.299 | 0.373 | 0.368
